Biological target: recombinant human integrin α4β7 (binding to recombinant human MAdCAM-1) (Homo sapiens (Human), UniProt P13612+P26010)
Test: MAdCAM-1/α4β7 integrin binding inhibition activity evaluation test (α4β7-MAdCAM-1 ELISA)
Conditions: plate-coated recombinant human MAdCAM-1, recombinant human α4β7, 2 h room temperature, free form of compound
Protocol: EXAMPLE: MADCAM-1/α4β7 INTEGRIN BINDING INHIBITION ACTIVITY EVALUATION TEST (α4β7-MADCAM-1 ELISA)
Coat the 96-well microplate (Costar) with 50 μL of recombinant human MAdCAM-1 (R&D Systems) solution per well, and incubate overnight (12-18 hours) at 4° C. Wash three times with 150 μL of TBS buffer per well. Block plate with 150 μL per well with blocking buffer for 1 h at 37° C. Wash three times with 150 μL of TBS buffer per well. Dilute the recombinant human integrin α4β7 (R&D Systems) with TBS buffer containing 0.1% bovine serum albumin (BSA), then add to the 96 well plate with 50 μL per well. Add 1 μL of test compound or DMSO, cover, incubate at room temperature for 2 h, wash three times with 150 μL of TBS buffer per well. Dilute the anti-β7 antibody (R&D Systems) with 0.1% BSA TBS buffer, then add to the 96 well plate with 50 μL per well, cover, incubate at room temperature for 1 h, wash three times with 150 μL of TBS buffer per well. Add 50 μL of streptavidin-HRP (R&D Systems) per well, incubate at room temperature for 20 min, wash three times with 150 μL of TBS buffer per well. Add 50 μL of TMB substrate solution (Sigma) per well, incubate at room temperature for 5-30 min, and add 25 μL of stop solution per well to stop the reaction. Finally, measure absorbance at 450 nm with microplate reader (SpectraMax 340PC. Molecular Devices). Repeat the test to find the binding rate of cells at each concentration when the absorbance of the well without the test substance is used as 100%, and calculate the concentration IC50 that causes 50% binding inhibition and summarize the results in Table 1.
It should be stated that, as a test compound, the free form of the compound synthesized in the above examples is used.

recombinant human integrin α4β7 (binding to recombinant human MAdCAM-1), sequence (P13612 34-970): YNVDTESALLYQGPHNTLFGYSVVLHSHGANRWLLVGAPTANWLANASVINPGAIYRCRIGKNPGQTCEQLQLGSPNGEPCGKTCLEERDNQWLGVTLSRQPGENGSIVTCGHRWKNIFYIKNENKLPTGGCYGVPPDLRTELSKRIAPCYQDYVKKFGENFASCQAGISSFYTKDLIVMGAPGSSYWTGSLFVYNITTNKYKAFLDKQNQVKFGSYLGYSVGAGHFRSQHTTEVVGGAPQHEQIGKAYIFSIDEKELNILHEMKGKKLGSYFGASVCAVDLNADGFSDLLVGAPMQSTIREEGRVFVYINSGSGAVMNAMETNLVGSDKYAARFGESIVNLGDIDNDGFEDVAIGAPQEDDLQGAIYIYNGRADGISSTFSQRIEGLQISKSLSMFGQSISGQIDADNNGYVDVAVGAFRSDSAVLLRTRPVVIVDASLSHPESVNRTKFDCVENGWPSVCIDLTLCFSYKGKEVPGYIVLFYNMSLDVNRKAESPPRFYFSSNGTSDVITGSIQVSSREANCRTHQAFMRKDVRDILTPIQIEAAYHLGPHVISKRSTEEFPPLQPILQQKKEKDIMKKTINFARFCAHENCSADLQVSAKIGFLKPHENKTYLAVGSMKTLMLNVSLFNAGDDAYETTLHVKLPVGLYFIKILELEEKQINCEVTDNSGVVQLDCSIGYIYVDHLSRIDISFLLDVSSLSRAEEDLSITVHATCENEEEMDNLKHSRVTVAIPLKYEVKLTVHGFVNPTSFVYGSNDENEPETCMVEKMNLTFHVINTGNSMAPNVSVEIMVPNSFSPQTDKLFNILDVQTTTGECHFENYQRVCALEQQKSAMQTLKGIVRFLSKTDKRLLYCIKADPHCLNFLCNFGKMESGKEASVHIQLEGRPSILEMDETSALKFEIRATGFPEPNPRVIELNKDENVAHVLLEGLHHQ
recombinant human integrin α4β7 (binding to recombinant human MAdCAM-1), sequence (P26010 20-723): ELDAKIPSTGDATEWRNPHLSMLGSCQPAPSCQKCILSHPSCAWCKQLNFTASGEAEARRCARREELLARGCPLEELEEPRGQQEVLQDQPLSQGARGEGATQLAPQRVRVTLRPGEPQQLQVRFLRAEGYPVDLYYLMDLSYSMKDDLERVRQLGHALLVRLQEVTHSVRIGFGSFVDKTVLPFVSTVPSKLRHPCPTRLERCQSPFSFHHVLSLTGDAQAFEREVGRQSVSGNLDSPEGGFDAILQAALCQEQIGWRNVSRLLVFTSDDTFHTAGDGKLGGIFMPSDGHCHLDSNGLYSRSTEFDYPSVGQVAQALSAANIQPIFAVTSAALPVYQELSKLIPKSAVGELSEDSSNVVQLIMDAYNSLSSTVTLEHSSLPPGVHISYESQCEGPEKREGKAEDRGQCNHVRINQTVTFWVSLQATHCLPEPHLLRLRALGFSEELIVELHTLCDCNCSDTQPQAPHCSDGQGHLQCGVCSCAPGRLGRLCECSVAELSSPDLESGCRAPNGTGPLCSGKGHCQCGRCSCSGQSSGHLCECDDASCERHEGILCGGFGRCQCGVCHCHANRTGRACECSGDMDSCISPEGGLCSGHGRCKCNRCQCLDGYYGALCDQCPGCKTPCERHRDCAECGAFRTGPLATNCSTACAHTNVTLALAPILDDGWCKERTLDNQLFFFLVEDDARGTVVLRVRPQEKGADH

Row | IC50 [nM] | SMILES
1 | 14.3 | O=C(N[C@@H](Cc1ccc(N2C(=O)C3(CC3)c3cc(F)c(F)cc32)cc1)C(=O)O)c1c(F)cccc1Cl [Example 1, (S)-2-(2-chloro-6-fluorobenzamide)-3-(4-(5′,6′-difluoro-2′-oxospirino[cyclopropane-1,3′-indoline]-1′-yl)phenyl)propionic acid]
2 | 2.57 | O=C(N[C@@H](Cc1ccc(N2C(=O)C3(CC3)c3cccc(Cl)c32)cc1)C(=O)O)c1c(F)cccc1Cl [Example 2, (S)-3-(4-(7′-chloro-2′-oxospiro[cyclopropane-1,3′-indoline]-1′-yl)phenyl)-2-(2-chloro-6-fluorobenzamide) propionic acid]
3 | 5.48 | COc1cccc2c1N(c1ccc(C[C@H](NC(=O)c3c(Cl)cccc3Cl)C(=O)O)cc1)C(=O)C21CC1 [Example 3, (S)-2-(2,6-dichlorobenzamido)-3-(4-(7′-methoxy-2′-oxospiro[cyclopropane-1,3′-indoline]-1′-yl)phenyl)propionic acid]
4 | 2.54 | O=C(N[C@@H](Cc1ccc(N2C(=O)C3(CC3)c3ccc(F)cc32)cc1)C(=O)O)c1c(Cl)cccc1Cl [Example 4, (S)-2-(2,6-dichlorobenzamido)-3-(4-(6′-fluoro-2′-oxospiro[cyclopropane-1,3′-indoline]-1′-yl)phenyl)propionic acid]
5 | 2.87 | O=C(N[C@@H](Cc1ccc(N2C(=O)C3(CC3)c3cccc(F)c32)cc1)C(=O)O)c1c(Cl)cccc1Cl [Example 5, (S)-2-(2,6-dichlorobenzoylamino)-3-(4-(7′-fluoro-2′-oxospiro[cyclopropane-1,3′-indoline]-1′-yl)phenyl)propionic acid]
6 | 5.81 | O=C(N[C@@H](Cc1ccc(N2C(=O)C3(CC3)c3ccccc32)cc1)C(=O)O)c1c(Cl)cccc1Cl [Example 6, (S)-2-(2,6-dichlorobenzamido)-3-(4-(2′-oxospiro[cyclopropane-1,3′-indoline]-1′-yl)phenyl)propionic acid]
7 | 16.1 | O=C(N[C@@H](Cc1ccc(N2C(=O)C3(CCOCC3)c3cccc(Cl)c32)cc1)C(=O)O)c1c(F)cccc1Cl [Example 7, (S)-3-(4-(7-chloro-2-oxo-2′,3′,5′,6′-tetrahydrospiro[indoline-3,4′-pyran]-1-yl)phenyl)-2-(2-chloro-6-fluorobenzamide)propionic acid]
8 | 17.6 | O=C(N[C@@H](Cc1ccc(N2C(=O)C3(CC3)c3cc(F)c(Cl)cc32)cc1)C(=O)O)c1c(F)cccc1Cl [Example 8, (S)-3-(4-(6′-chloro-5′-fluoro-2′-oxospiro[cyclopropane-1,3′-indoline]-1′-yl)phenyl)-2-(2-chloro-6-fluorobenzamide)propionic acid]
9 | 95.5 | O=C(N[C@@H](Cc1ccc(N2C(=O)C3(CC3)c3cc(F)ccc32)cc1)C(=O)O)c1c(F)cccc1Cl [Example 9, (S)-2-(2-chloro-6-fluorobenzamide)-3-(4-(5′-fluoro-2′-oxospiro[cyclopropane-1,3′-indoline]-1′-yl)phenyl)propionic acid]
10 | 38.8 | CC1(C)C(=O)N(c2ccc(C[C@H](NC(=O)c3c(F)cccc3Cl)C(=O)O)cc2)c2c(Cl)cccc21 [Example 10, (S)-3-(4-(7-chloro-3,3-dimethyl-2-oxoindoline-1-yl)phenyl)-2-(2-chloro-6-fluorobenzamide)propionic acid]
11 | 3.05 | CN(C)c1cc2c(cc1F)C1(CC1)C(=O)N2c1ccc(C[C@H](NC(=O)c2c(F)cccc2Cl)C(=O)O)cc1 [Example 11, (S)-2-(2-chloro-6-fluorobenzamide)-3-(4-(6′-(dimethylamino)-5′-fluoro-2′-oxospiro[cyclopropane-1,3′-indoline]-1′-yl)phenyl)propionic acid]
12 | 4.15 | CN(C)c1ccc2c(c1)C1(CC1)C(=O)N2c1ccc(C[C@H](NC(=O)c2c(F)cccc2Cl)C(=O)O)cc1 [Example 12, (S)-2-(2-chloro-6-fluorobenzamide)-3-(4-(5′-(dimethylamino)-2′-oxospiro[cyclopropane-1,3′-indoline]-1′-yl)phenyl)propionic acid]
13 | 8.02 | O=C(N[C@@H](Cc1ccc(N2C(=O)C3(CC3)c3ccc(F)cc32)cc1)C(=O)O)c1c(F)cccc1Cl [Example 13]
14 | 6.21 | O=C(N[C@@H](Cc1ccc(N2C(=O)C3(CC3)c3cccc(F)c32)cc1)C(=O)O)c1c(F)cccc1Cl [Example 14, (S)-2-(2-chloro-6-fluorobenzamide)-3-(4-(7-fluoro-2′-oxospiro[cyclopropane-1,3′-indoline]-1′-yl)phenyl)propionic acid]
15 | 5.62 | O=C(N[C@@H](Cc1ccc(N2C(=O)C3(CC3)c3ccc(F)c(F)c32)cc1)C(=O)O)c1c(F)cccc1Cl [Example 15, (S)-2-(2-chloro-6-fluorobenzamide)-3-(4-(6′,7′-difluoro-2′-oxospirino[cyclopropane-1,3′-indoline]-1′-yl)phenyl)propionic acid]
16 | 0.75 | O=C(N[C@@H](Cc1ccc(N2C(=O)C3(CC3)c3cccnc32)cc1)C(=O)O)c1c(Cl)cccc1Cl [Example 16, (S)-2-(2,6-dichlorobenzamido)-3-(4-(2′-oxospiro[cyclopropane-1,3′-pyrrolo[2,3-b]pyridine]-1′(2′H)-yl)phenyl)propionic acid]
17 | 64.2 | O=C(N[C@@H](Cc1ccc(N2C(=O)C3(CC3)c3cccc(Cl)c32)cc1)C(=O)O)c1c(Cl)cc(Cl)cc1Cl [Example 17, (S)-3-(4-(7′-chloro-2′-oxospiro[cyclopropane-1,3′-indoline]-1′-yl)phenyl)-2-(2,4,6-trichlorobenzoylamino)propionic acid]
18 | 11.4 | O=C(N[C@@H](Cc1ccc(N2C(=O)C3(CC3)c3cccc(Cl)c32)cc1)C(=O)O)c1c(Cl)cc(N2CCOCC2)cc1Cl [Example 19, (S)-3-(4-(7′-chloro-2′-oxospiro[cyclopropane-1,3′-indoline]-1′-yl)phenyl)-2-(2,6-dichloro-4-morpholinobenzoylamino)propionic acid]
19 | 4.15 | O=C(N[C@@H](Cc1ccc(N2C(=O)C3(CC3)c3cccc(Cl)c32)cc1)C(=O)O)c1c(Cl)cc(N2CC3CC2CO3)cc1Cl (stereo partly shown) [Example 20]
20 | 23.7 | O=C(N[C@@H](Cc1ccc(N2C(=O)C3(CC3)c3cccc(Cl)c32)cc1)C(=O)O)c1c(Cl)cc(N2CCC(N3CCOCC3)CC2)cc1Cl [Example 21, (S)-3-(4-(7′-chloro-2′-oxospiro[cyclopropane-1,3′-indoline]-1′-yl)phenyl)-2-(2,6-dichloro-4-(4-morpholinopiperidin-1-yl)benzoylamino)propionic acid]
21 | 1.19 | Cn1c(=O)n(-c2ccc(C[C@H](NC(=O)c3c(F)cccc3Cl)C(=O)O)cc2)c2c(Cl)cccc21 [Example 22, (S)-3-(4-(7-chloro-3-methyl-2-oxo-2,3-dihydro-1H-benzo-1H-imidazol-1-yl)phenyl)-2-(2-chloro-6-fluorobenzamide)propionic acid]
22 | 143 | O=C(N[C@@H](Cc1ccc(-n2c(=O)n(C3CC3)c3cc(Cl)ccc32)cc1)C(=O)O)c1c(Cl)cccc1Cl [Example 23, (S)-3-(4-(5-chloro-3-cyclopropyl-2-oxo-2,3-dihydro-1H-benzo[d]imidazol-1-yl)phenyl)-2-(2,6-dichlorobenzamido)propionic acid]

Source: US20240150287A1, “N-(BENZOYL)-PHENYLALANINE COMPOUND, PHARMACEUTICAL COMPOSITION CONTAINING SAME, AND USE THEREOF” (Hangzhou Apeloa Medicine Research Institute Co., Ltd., priority 2021, published 2024)
